From patent EP3839043A1, “SCREENING METHODS FOR COMPOUNDS MODULATING POLYAMINE TRANSPORT” (Katholieke Universiteit Leuven, priority 2019, dated 2021)
Marks after values point to notes of the source that are not given here.

Tests used:
Microsomal ATP13A2 = target: T1, Microsomal ATP13A2 (Homo sapiens, UniProt Q9NQ11); experiment: ATPase assay (ADP-Glo Max), solubilized microsomes of SH-SY5Y cells overexpressing ATP13A2 WT; type: biochemical; details: for ATPase activity of ATP13A2 WT, screen for candidate substrates: 100 nM CaCl2, MnCl2, ZnCl2 or FeCl3, 100 µM SPD or SPM; for Vmax ± SEM: Microsomal ATP13A2; for ATPase activity of ATP13A2, dose-response: indicated doses, microsomes 5 µg
T1 construct: expressed in transfected cells; host or cells: SH-SY5Y human neuroblastoma cells, lentiviral transduction; microsomes solubilised with DDM
T1 sequence (Q9NQ11 1-1175 isoform Q9NQ11-3): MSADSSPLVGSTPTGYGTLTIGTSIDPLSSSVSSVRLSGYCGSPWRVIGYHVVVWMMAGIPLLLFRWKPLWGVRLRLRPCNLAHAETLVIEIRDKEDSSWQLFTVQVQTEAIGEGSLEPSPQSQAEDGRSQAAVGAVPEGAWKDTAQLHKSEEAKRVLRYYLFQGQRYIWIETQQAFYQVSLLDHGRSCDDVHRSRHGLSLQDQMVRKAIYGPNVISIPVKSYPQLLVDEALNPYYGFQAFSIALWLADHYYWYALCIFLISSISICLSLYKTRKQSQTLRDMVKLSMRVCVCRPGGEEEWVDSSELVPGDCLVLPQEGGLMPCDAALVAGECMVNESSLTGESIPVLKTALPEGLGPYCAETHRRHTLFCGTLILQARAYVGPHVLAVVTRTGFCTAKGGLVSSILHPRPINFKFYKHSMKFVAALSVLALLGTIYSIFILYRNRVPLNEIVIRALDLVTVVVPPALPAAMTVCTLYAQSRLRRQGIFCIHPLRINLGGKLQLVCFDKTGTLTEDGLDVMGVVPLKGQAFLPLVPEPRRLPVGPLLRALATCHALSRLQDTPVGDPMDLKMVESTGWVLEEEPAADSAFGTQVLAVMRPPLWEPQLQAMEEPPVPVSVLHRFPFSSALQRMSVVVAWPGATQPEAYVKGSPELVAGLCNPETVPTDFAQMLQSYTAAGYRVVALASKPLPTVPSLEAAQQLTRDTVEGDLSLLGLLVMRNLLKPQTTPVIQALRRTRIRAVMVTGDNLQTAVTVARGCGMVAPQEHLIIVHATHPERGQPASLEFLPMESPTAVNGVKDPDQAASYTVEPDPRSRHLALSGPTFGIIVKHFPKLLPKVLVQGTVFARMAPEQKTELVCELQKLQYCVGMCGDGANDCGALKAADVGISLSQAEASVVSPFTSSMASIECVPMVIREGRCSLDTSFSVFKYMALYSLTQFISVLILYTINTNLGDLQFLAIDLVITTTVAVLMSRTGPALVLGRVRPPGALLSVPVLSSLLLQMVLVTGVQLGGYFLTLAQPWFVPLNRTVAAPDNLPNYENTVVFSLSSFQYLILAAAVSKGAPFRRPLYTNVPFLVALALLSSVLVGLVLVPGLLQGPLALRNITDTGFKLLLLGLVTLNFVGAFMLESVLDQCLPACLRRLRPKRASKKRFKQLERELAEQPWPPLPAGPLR
Method: Membrane fractionation - Transduced SH-SY5Y cells were seeded in […] at a density of 6 x 10^6 cells per plate. 24 h later, the cells were harvested following trypsinization and brief centrifugation (300 x g, 5 min). Subcellular fractionation was performed by differential centrifugation. The microsomal protein concentration was measured using the bicinchoninic acid assay (Thermo Fischer Scientific, Pierce) according to the manufacturer's instructions.
ATPase assay - The ATPase activity of ATP13A2 was assessed using a commercially available luminescence assay (ADP-Glo Max assay, Promega) that monitors the production of ADP via luciferase activity. The reactions were performed for 30 min (37°C) in a final volume of 25 µl. […] The assay was started by the addition of 5 mM ATP and was terminated by adding 25 µl of ADP-Glo Reagent. The 96-well plate was then incubated for 40 min at room temperature, followed by the addition of 50 µl of ADP-Glo Max Detection Reagent. After 40 min, luminescence was detected using a FlexStation 3.0 system (Molecular Devices). Dose-response curves and n/Km/Vmax values were calculated using GraphPad Prism Software (GraphPad Software Inc.).

SH-SY5Y cells [1] = experiment: MUH cytotoxicity assay; type: cell-based, human; details: increasing concentrations, 24 h
Method: MUH cytotoxicity assay - SH-SY5Y cells were seeded in 96-well plates (1 X 10^4 cells per well) and allowed to adhere overnight. The cells were subsequently treated with increasing doses of the indicated compounds for 24-48 h. Following exposure, the cells were washed with PBS and stained with 300 µg/ml MUH (prepared in DMSO, dissolved in PBS) for 30 min at 37°C.

cathepsin B (CTSB) = details: toxic SPM levels (10 µM, 4 h)
Method: (§1) Cathepsin activity assays - SH-SY5Y cells were seeded in 10 cm^2 plates (2 X 10^6 cells per plate) and allowed to adhere overnight prior to treatment with 10 µM SPM for 4 h at 37°C. For samples requiring acidic nanoparticle addition, 180 ng/ml nanoparticles were added 1 h prior to SPM addition. Next, the samples were harvested using TRYPLE and a brief centrifugation (300 x g; 5 min). CTSB (ab65300) and CTSD (ab65302) activities were assessed using commercially available kits (Abcam) according to the manufacturer's instructions. MFI were acquired using a FlexStation 3.0 multi-well plate reader (Molecular Devices).

cathepsin D (CTSD) = details: toxic SPM levels (10 µM, 4 h)
Method: as §1

Purified ATP13A2 = target: T2, Purified ATP13A2 (Homo sapiens, UniProt Q9NQ11); details: 1 mM SPM
T2 sequence (Q9NQ11 1-1175 isoform Q9NQ11-3): T1 sequence (Q9NQ11 1-1175 isoform Q9NQ11-3)
Method: (§2) PLoS One 13, e0193228, (2018)].
(§3) In case of purified ATP13A2, 125 µM PA and 125 µM PI(3,5)P2 were included in the reaction mixture. To determine the sensitivity of the ATP13A2 phosphoenzyme to ATP or a combination of ATP and SPM, 30 s after adding ^32P-ATP, samples were incubated with non-radioactive ATP (5 mM in experiments using microsomes, 1 mM when purified ATP13A2 was used) and SPM (1 mM) before the reaction was stopped at indicated time points. The incorporation of ^32P was visualized following SDS-PAGE under acidic conditions and subsequently detected by autoradiography (microsomes) or liquid scintillation counting (purified ATP13A2) (Liquid Scintillation Analyzer TRI-CARB 2900TR).

ATP13A2 = ATP13A2 (Homo sapiens, UniProt Q9NQ11)
Method: as §2, §3

SH-SY5Y cells [2] = tested on: SH-SY5Y cells
Method: PI exclusion assay - Cells were seeded in 12-well plates (1.0 X 10^5 cells per well) and the next day, the cells were treated with increasing doses of SPM, alone or in combination with the CTSB inhibitor CA-074 (25 µM, 1 h pre-incubation) or acidic nanoparticles (180 ng/ml, 1 h pre-incubation), and incubated for 24 h at 37°C. Thereafter, the cells were harvested following trypsinization and a brief centrifugation (300 x g; 5 min), washed with PBS and stained with 1 µg/ml PI (in PBS containing 1% BSA). An Attune Nxt (Thermo Fischer Scientific) flow cytometer was used to determine the proportion of PI-positive cells (10,000 events per treatment).

SMILES	ATPase activity of ATP13A2 WT, screen for candidate substrates (Microsomal ATP13A2)	Vmax ± SEM (Microsomal ATP13A2)	ATPase activity of ATP13A2, dose-response (Microsomal ATP13A2)	viability of control cells (SH-SY5Y cells [1])	cathepsin B (CTSB) activity (cathepsin B (CTSB))	cathepsin D (CTSD) activity (cathepsin D (CTSD))	Hill coefficient of SPM-induced ATPase activity (Microsomal ATP13A2; microsomal ATP13A2 WT)	dephosphorylation of purified WT after chase with cold ATP (Purified ATP13A2)	ATP13A2 phospho-enzyme levels (ATP13A2; WT-OE microsomes 20 µg, 60 s with [γ-32P] ATP)	dephosphorylation rate following a chase with non-radioactive ATP (ATP13A2; WT-OE microsomes, 1 mM SPM)	cell death (SH-SY5Y cells [2])
NCCCCNCCCN [Spermidine, spermidine]	significantly stimulated ATPase activity	∼ 106* nmol ADP/mg/min	stimulate ATPase activity in a concentration-dependent manner	reduced the viability							
NCCCNCCCCNCCCN [Spermine, spermine]	significantly stimulated ATPase activity	140 ± 6 nmol ADP/mg/min	stimulate ATPase activity in a concentration-dependent manner	reduced the viability	increased	decreased	approaches one	clearly stimulates dephosphorylation	dose-dependent reduction	significantly higher dephosphorylation rate	increase in cell death
